Laboratory results taken from PubChem BioAssay (NCI).
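Growth conditions: 96-well plates. Treatment: test compound, 48 hours, 5 concentrations. Analysis: linear interpolation between bracketing concentrations; unreached endpoints set to highest concentration. TGI marks complete inhibition of growth.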

Tests used:
Test in all cases: growth of human tumour cells (NCI), 48 h
ACHN renal = system: ACHN renal
BT-549 breast = system: BT-549 breast
SN12C renal = system: SN12C renal
M14 melanoma = system: M14 melanoma
UACC-257 melanoma = system: UACC-257 melanoma
UACC-62 melanoma = system: UACC-62 melanoma
SW-620 colon = system: SW-620 colon
HL-60(TB) leukemia = system: HL-60(TB) leukemia
HOP-92 NSCLC = system: HOP-92 NSCLC
KM12 colon = system: KM12 colon
PC-3 prostate = system: PC-3 prostate
NCI/ADR-RES ovarian = system: NCI/ADR-RES ovarian
OVCAR-3 ovarian = system: OVCAR-3 ovarian
SK-MEL-2 melanoma = system: SK-MEL-2 melanoma
RXF 393 renal = system: RXF 393 renal
A549 NSCLC = system: A549 NSCLC
T-47D breast = system: T-47D breast
CCRF-CEM leukemia = system: CCRF-CEM leukemia
DU-145 prostate = system: DU-145 prostate
SNB-75 CNS = system: SNB-75 CNS
TK-10 renal = system: TK-10 renal
NCI-H226 lung = system: NCI-H226 lung
IGROV1 ovarian = system: IGROV1 ovarian
RPMI-8226 leukemia = system: RPMI-8226 leukemia
LOX IMVI melanoma = system: LOX IMVI melanoma
MOLT-4 leukemia = system: MOLT-4 leukemia
OVCAR-8 ovarian = system: OVCAR-8 ovarian
K-562 leukemia = system: K-562 leukemia
OVCAR-4 ovarian = system: OVCAR-4 ovarian
786-0 renal = system: 786-0 renal
HCT-15 colon = system: HCT-15 colon
OVCAR-5 ovarian = system: OVCAR-5 ovarian
MDA-N = system: MDA-N
NCI-H522 lung = system: NCI-H522 lung
SF-268 CNS = system: SF-268 CNS
CAKI-1 renal = system: CAKI-1 renal
EKVX NSCLC = system: EKVX NSCLC
SNB-19 CNS = system: SNB-19 CNS
HS 578T breast = system: HS 578T breast
MCF7 breast = system: MCF7 breast
SR leukemia = system: SR leukemia
HCC-2998 colon = system: HCC-2998 colon
U251 CNS = system: U251 CNS
MDA-MB-435 = system: MDA-MB-435
SF-295 CNS = system: SF-295 CNS
MDA-MB-231 breast = system: MDA-MB-231 breast
UO-31 renal = system: UO-31 renal
SF-539 CNS = system: SF-539 CNS
HCT-116 colon = system: HCT-116 colon
SK-MEL-28 melanoma = system: SK-MEL-28 melanoma
COLO 205 colon = system: COLO 205 colon
NCI-H460 lung = system: NCI-H460 lung
SK-MEL-5 melanoma = system: SK-MEL-5 melanoma
MALME-3M melanoma = system: MALME-3M melanoma
HT29 colon = system: HT29 colon
NCI-H23 lung = system: NCI-H23 lung
SK-OV-3 ovarian = system: SK-OV-3 ovarian
HOP-62 NSCLC = system: HOP-62 NSCLC

## CCOC(=O)c1nc2cc(C(F)(F)F)ccc2nc1Oc1ccc(OC)cc1
ACHN renal
  TGI: > 100 µM
BT-549 breast
  TGI: > 100 µM
SN12C renal
  TGI: > 100 µM
M14 melanoma
  TGI: > 100 µM
UACC-257 melanoma
  TGI: > 100 µM
UACC-62 melanoma
  TGI: > 100 µM
SW-620 colon
  TGI: > 100 µM
HL-60(TB) leukemia
  TGI: > 100 µM
HOP-92 NSCLC
  TGI: > 100 µM
KM12 colon
  TGI: > 100 µM
PC-3 prostate
  TGI: > 100 µM
NCI/ADR-RES ovarian
  TGI: > 100 µM
OVCAR-3 ovarian
  TGI: > 100 µM
SK-MEL-2 melanoma
  TGI: > 100 µM
RXF 393 renal
  TGI: > 100 µM
A549 NSCLC
  TGI: > 100 µM
T-47D breast
  TGI: > 100 µM
CCRF-CEM leukemia
  TGI: > 100 µM
DU-145 prostate
  TGI: > 100 µM
SNB-75 CNS
  TGI: > 100 µM
TK-10 renal
  TGI: > 100 µM
NCI-H226 lung
  TGI: > 100 µM
IGROV1 ovarian
  TGI: > 100 µM
RPMI-8226 leukemia
  TGI: > 100 µM
LOX IMVI melanoma
  TGI: > 100 µM
MOLT-4 leukemia
  TGI: > 100 µM
OVCAR-8 ovarian
  TGI: > 100 µM
K-562 leukemia
  TGI: > 100 µM
OVCAR-4 ovarian
  TGI: > 100 µM
786-0 renal
  TGI: > 100 µM
HCT-15 colon
  TGI: > 100 µM
OVCAR-5 ovarian
  TGI: > 100 µM
MDA-N
  TGI: > 100 µM
NCI-H522 lung
  TGI: > 100 µM
SF-268 CNS
  TGI: > 100 µM
CAKI-1 renal
  TGI: > 100 µM
EKVX NSCLC
  TGI: > 100 µM
SNB-19 CNS
  TGI: > 100 µM
HS 578T breast
  TGI: > 100 µM
MCF7 breast
  TGI: > 100 µM
SR leukemia
  TGI: > 100 µM
HCC-2998 colon
  TGI: > 100 µM
U251 CNS
  TGI: > 100 µM
MDA-MB-435
  TGI: > 100 µM
SF-295 CNS
  TGI: > 100 µM
MDA-MB-231 breast
  TGI: > 100 µM
UO-31 renal
  TGI: > 100 µM
SF-539 CNS
  TGI: > 100 µM
HCT-116 colon
  TGI: > 100 µM
SK-MEL-28 melanoma
  TGI: > 100 µM
COLO 205 colon
  TGI: > 100 µM
NCI-H460 lung
  TGI: > 100 µM
SK-MEL-5 melanoma
  TGI: > 100 µM
MALME-3M melanoma
  TGI: > 100 µM

## Cc1nn(C(=O)c2ccccc2O)c2c1C(c1ccccc1O)SC(N)=N2 (stereo not given)
ACHN renal
  TGI: > 10 µM
BT-549 breast
  TGI: > 10 µM
SN12C renal
  TGI: > 10 µM
M14 melanoma
  TGI: > 10 µM
UACC-257 melanoma
  TGI: > 10 µM
UACC-62 melanoma
  TGI: > 10 µM
SW-620 colon
  TGI: > 10 µM
HL-60(TB) leukemia
  TGI: 5.02 µM
HOP-92 NSCLC
  TGI: > 10 µM
KM12 colon
  TGI: > 10 µM
PC-3 prostate
  TGI: > 10 µM
NCI/ADR-RES ovarian
  TGI: > 10 µM
OVCAR-3 ovarian
  TGI: > 10 µM
SK-MEL-2 melanoma
  TGI: > 10 µM
RXF 393 renal
  TGI: > 10 µM
A549 NSCLC
  TGI: > 10 µM
T-47D breast
  TGI: > 10 µM
CCRF-CEM leukemia
  TGI: 9.01 µM
DU-145 prostate
  TGI: > 10 µM
SNB-75 CNS
  TGI: > 10 µM
TK-10 renal
  TGI: > 10 µM
NCI-H226 lung
  TGI: 8.96 µM
HT29 colon
  TGI: > 10 µM
IGROV1 ovarian
  TGI: > 10 µM
RPMI-8226 leukemia
  TGI: 8.19 µM
LOX IMVI melanoma
  TGI: > 10 µM
NCI-H23 lung
  TGI: > 10 µM
MOLT-4 leukemia
  TGI: > 10 µM
OVCAR-8 ovarian
  TGI: > 10 µM
K-562 leukemia
  TGI: > 10 µM
OVCAR-4 ovarian
  TGI: > 10 µM
786-0 renal
  TGI: > 10 µM
HCT-15 colon
  TGI: > 10 µM
OVCAR-5 ovarian
  TGI: > 10 µM
SK-OV-3 ovarian
  TGI: > 10 µM
MDA-N
  TGI: > 10 µM
NCI-H522 lung
  TGI: > 10 µM
SF-268 CNS
  TGI: > 10 µM
CAKI-1 renal
  TGI: > 10 µM
EKVX NSCLC
  TGI: > 10 µM
HS 578T breast
  TGI: > 10 µM
MCF7 breast
  TGI: > 10 µM
SR leukemia
  TGI: 5.4 µM
HCC-2998 colon
  TGI: > 10 µM
U251 CNS
  TGI: > 10 µM
MDA-MB-435
  TGI: > 10 µM
SF-295 CNS
  TGI: > 10 µM
MDA-MB-231 breast
  TGI: > 10 µM
HOP-62 NSCLC
  TGI: > 10 µM
SF-539 CNS
  TGI: 3.53 µM
HCT-116 colon
  TGI: > 10 µM
SK-MEL-28 melanoma
  TGI: > 10 µM
COLO 205 colon
  TGI: > 10 µM
NCI-H460 lung
  TGI: > 10 µM
SK-MEL-5 melanoma
  TGI: > 10 µM
MALME-3M melanoma
  TGI: > 10 µM
